From patent US12281149B2, “Modulators of G-protein coupled receptors” (priority 2021, dated 2025) come the findings set out here.

Type in all cases: cell-based
In experiment [1] the target is T1, GIP receptor (Homo sapiens, UniProt P48546).
T1 sequence (P48546 22-466): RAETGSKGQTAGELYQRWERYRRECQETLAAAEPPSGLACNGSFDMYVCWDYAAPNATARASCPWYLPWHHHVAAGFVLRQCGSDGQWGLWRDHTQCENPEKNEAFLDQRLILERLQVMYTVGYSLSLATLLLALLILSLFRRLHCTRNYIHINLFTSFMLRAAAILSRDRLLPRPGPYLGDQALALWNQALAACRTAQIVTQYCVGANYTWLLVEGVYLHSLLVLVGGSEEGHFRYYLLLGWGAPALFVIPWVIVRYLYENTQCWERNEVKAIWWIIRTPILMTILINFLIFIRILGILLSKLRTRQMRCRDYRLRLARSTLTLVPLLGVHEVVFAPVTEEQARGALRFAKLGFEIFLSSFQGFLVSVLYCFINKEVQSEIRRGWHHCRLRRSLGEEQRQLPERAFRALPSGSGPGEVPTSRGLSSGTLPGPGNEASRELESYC
Kind of experiment: PathHunter β-arrestin assay, GIP receptor. The conditions noted are these: β-arrestin-2 recruitment, PathHunter CHO-K1 GIPR β-Arrestin Cell Line, 90 min at 37° C.; normalized to GIP; read-out: GIPR β Arrestin EC50. Also on record: host or cells: PathHunter CHO-K1 GIPR β-Arrestin Cell Line.

Experiment [2] deals with T1, GIP receptor. In words: HitHunter cAMP assay, GIP receptor. To be noted: for EC50: CHO cells stably expressing GIP receptor, cAMP accumulation, 30 min, read-out: EC50 GIP-1R; for Emax: CHO cells, cAMP, normalized to maximum signal from GIP (high) and DMSO (low), read-out: Emax GIP-1R. In general terms: Changes in cAMP serve as a functional read-out for many G protein-coupled receptors.

Experiment [3] deals with T2, GLP-1 receptor (Homo sapiens, UniProt P43220). Kind of experiment: PathHunter β-arrestin assay, GLP-1 receptor. Also on record: host or cells: PathHunter CHO-K1 GLP1R β-Arrestin Cell Line. The conditions noted are these: β-arrestin-2 recruitment, PathHunter CHO-K1 GLP1R β-Arrestin Cell Line, 90 min at 37° C.; normalized to GLP-1; read-out: GLP-1R β Arrestin EC50. (In general: Arrestin recruitment assays detect the binding of arrestin to an activated receptor.)

Experiment [4] has as its target T2, GLP-1 receptor. In words: HitHunter cAMP assay, GLP-1 receptor. The conditions noted are these: for EC50: CHO cells stably expressing human GLP-1 receptor, cAMP accumulation, 30 min, read-out: EC50 GLP-1R; for Emax: CHO cells, cAMP, normalized to maximum signal from GLP-1 (high) and DMSO (low), read-out: Emax GLP-1R.

*1 amine or outer side, *2 acyl side, *3 side chain or, on linkers, in order; H or OH if unused. Where a SMILES comes first, the peptide text is derived from it. Side-chain parts run from the residue outwards. [ ]: non-standard residue; d: D form. The star is where a group is joined. Isobutyryl(2-(3-CN-5-F-Ph)) = CC(C)(C(=O)*)c1cc(F)cc(C#N)c1; C20 diacid = O=C(O)CCCCCCCCCCCCCCCCCCC(=O)*; αMePhe(2-F) = C[C@](N)(Cc1ccccc1F)C(=O)O; β2hAla(2S) = C[C@@H](CN[*:1])C(=O)[*:2]; γGlu = O=C(O)[C@H](CCC(=O)[*:2])N[*:1]; X71 = COc1cc(F)cc(C(C)(C)C(=O)*)c1; X18 = O=C(C1(c2cccc(F)c2)CCCC1)*; X8 = O=C(CCNCc1cc(O)cc(F)c1)*; αMeL = CC(C)C[C@](C)(N)C(=O)O; Orn = NCCC[C@H](N)C(=O)O; AEEA = NCCOCCOCC(=O)O; Aib = CC(C)(N)C(=O)O; βAla = NCCC(=O)O

T2 sequence (P43220 24-463): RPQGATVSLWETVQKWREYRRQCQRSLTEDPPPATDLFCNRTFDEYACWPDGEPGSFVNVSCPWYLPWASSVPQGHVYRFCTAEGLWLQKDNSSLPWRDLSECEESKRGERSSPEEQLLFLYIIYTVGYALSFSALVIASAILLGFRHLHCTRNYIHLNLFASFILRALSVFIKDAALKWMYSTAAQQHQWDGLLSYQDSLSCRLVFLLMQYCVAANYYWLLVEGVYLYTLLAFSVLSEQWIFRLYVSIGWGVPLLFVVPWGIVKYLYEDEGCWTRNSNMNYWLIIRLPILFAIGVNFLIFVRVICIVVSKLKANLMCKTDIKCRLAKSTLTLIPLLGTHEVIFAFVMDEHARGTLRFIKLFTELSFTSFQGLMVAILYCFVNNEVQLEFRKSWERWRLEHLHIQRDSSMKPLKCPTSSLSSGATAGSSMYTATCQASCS

As for `CC[C@H](C)[C@H](NC(=O)[C@H](CC(C)C)NC(=O)[C@H](Cc1c[nH]c2ccccc12)NC(=O)[C@H](CCC(N)=O)NC(=O)[C@@H](NC(=O)[C@H](Cc1ccccc1)NC(=O)[C@H](C)NC(=O)[C@H](CCCCNC(=O)COCCOCCNC(=O)COCCOCCNC(=O)CC[C@H](NC(=O)CCCCCCCCCCCCCCCCCCC(=O)O)C(=O)O)NC(=O)[C@H](CCC(N)=O)NC(=O)[C@H](C)NC(=O)[C@@H](NC(=O)[C@H](CCCCN)NC(=O)[C@H](CC(=O)O)NC(=O)[C@H](CC(C)C)NC(=O)C(C)(C)NC(=O)[C@@H](NC(=O)[C@H](CO)NC(=O)[C@H](Cc1ccc(O)cc1)NC(=O)[C@H](CC(=O)O)NC(=O)[C@H](CO)NC(=O)[C@@H](NC(=O)[C@H](Cc1ccccc1)NC(=O)[C@@H](NC(=O)CNC(=O)[C@H](CCC(=O)O)NC(=O)CCNC(=O)C(C)(C)c1cc(F)cc(OC)c1)[C@@H](C)O)[C@@H](C)O)[C@@H](C)CC)[C@@H](C)CC)C(C)C)C(=O)N[C@@H](C)C(=O)NCC(=O)NCC(=O)N1CCC[C@H]1C(=O)N[C@@H](CO)C(=O)N[C@@H](CO)C(=O)NCC(=O)N[C@@H](C)C(=O)N1CCC[C@H]1C(=O)N1CCC[C@H]1C(=O)N1CCC[C@H]1C(=O)N[C@@H](CO)C(N)=O` [Compound 118] ({X71-βAla}-EGTFTSDYSI[Aib]LDKIAQK([AEEA-AEEA-γGlu-C20 diacid])AFVQWLIAGGPSSGAPPPS-NH2), the concentration for a half-maximal effect (EC50) was greater than 1000 nM on GIP receptor [1], 10 to 100 nM on GIP receptor [2], greater than 1000 nM at GLP-1 receptor [3] and 1 to 10 nM at GLP-1 receptor [4]. The figures for the Emax at GIP receptor [2] and on GLP-1 receptor [4] were 105% and 103%, respectively.

For the molecule `CC[C@H](C)[C@H](NC(=O)[C@H](CC(C)C)NC(=O)[C@H](Cc1c[nH]c2ccccc12)NC(=O)[C@H](CCC(N)=O)NC(=O)[C@@H](NC(=O)[C@H](Cc1ccccc1)NC(=O)[C@H](C)NC(=O)[C@H](CCCCNC(=O)COCCOCCNC(=O)COCCOCCNC(=O)CC[C@H](NC(=O)CCCCCCCCCCCCCCCCCCC(=O)O)C(=O)O)NC(=O)[C@H](CCC(N)=O)NC(=O)[C@H](C)NC(=O)[C@@H](NC(=O)[C@H](CCCCN)NC(=O)[C@H](CC(=O)O)NC(=O)[C@H](CC(C)C)NC(=O)C(C)(C)NC(=O)[C@@H](NC(=O)[C@H](CO)NC(=O)[C@H](Cc1ccc(O)cc1)NC(=O)[C@H](CC(=O)O)NC(=O)[C@H](CO)NC(=O)[C@@H](NC(=O)[C@H](Cc1ccccc1)NC(=O)[C@@H](NC(=O)CNC(=O)[C@H](CCC(=O)O)NC(=O)CCNCc1cc(O)cc(F)c1)[C@@H](C)O)[C@@H](C)O)[C@@H](C)CC)[C@@H](C)CC)C(C)C)C(=O)N[C@@H](C)C(=O)NCC(=O)NCC(=O)N1CCC[C@H]1C(=O)N[C@@H](CO)C(=O)N[C@@H](CO)C(=O)NCC(=O)N[C@@H](C)C(=O)N1CCC[C@H]1C(=O)N1CCC[C@H]1C(=O)N1CCC[C@H]1C(=O)N[C@@H](CO)C(N)=O` [Compound 277] (X8-EGTFTSDYSI[Aib]LDKIAQK([AEEA-AEEA-γGlu-C20 diacid])AFVQWLIAGGPSSGAPPPS-NH2), the EC50 is greater than 1000 nM at GIP receptor [1], 100 to 1000 nM on GIP receptor [2], greater than 1000 nM on GLP-1 receptor [3] and 1 to 10 nM on GLP-1 receptor [4]. For the same molecule, the Emax at GIP receptor [2] amounted to 6%; on GLP-1 receptor [4], 89%.

On to `CC[C@H](C)[C@H](NC(=O)[C@H](CC(C)C)NC(=O)[C@H](Cc1c[nH]c2ccccc12)NC(=O)[C@H](CCC(N)=O)NC(=O)[C@@H](NC(=O)[C@H](Cc1ccccc1)NC(=O)[C@H](C)NC(=O)[C@H](CCCCNC(=O)COCCOCCNC(=O)COCCOCCNC(=O)CC[C@H](NC(=O)CCCCCCCCCCCCCCCCCCC(=O)O)C(=O)O)NC(=O)[C@H](CCC(N)=O)NC(=O)[C@H](C)NC(=O)[C@@H](NC(=O)[C@H](CCCCN)NC(=O)[C@H](CC(=O)O)NC(=O)[C@H](CC(C)C)NC(=O)C(C)(C)NC(=O)[C@@H](NC(=O)[C@H](CO)NC(=O)[C@H](Cc1ccc(O)cc1)NC(=O)[C@H](CC(=O)O)NC(=O)[C@H](CO)NC(=O)[C@@H](NC(=O)[C@H](Cc1ccccc1)NC(=O)[C@@H](NC(=O)CNC(=O)[C@H](CCC(=O)O)NC(=O)[C@@H](C)CNC(=O)C1(c2cccc(F)c2)CCCC1)[C@@H](C)O)[C@@H](C)O)[C@@H](C)CC)[C@@H](C)CC)C(C)C)C(=O)N[C@@H](C)C(=O)NCC(=O)NCC(=O)N1CCC[C@H]1C(=O)N[C@@H](CO)C(=O)N[C@@H](CO)C(=O)NCC(=O)N[C@@H](C)C(=O)N1CCC[C@H]1C(=O)N1CCC[C@H]1C(=O)N1CCC[C@H]1C(=O)N[C@@H](CO)C(N)=O` [Compound 180] (X18-[β2hAla(2S)]EGTFTSDYSI[Aib]LDKIAQK([AEEA-AEEA-γGlu-C20 diacid])AFVQWLIAGGPSSGAPPPS-NH2), for which the EC50 is less than 1000 nM at GIP receptor [1], 0.1 to 1 nM on GIP receptor [2], greater than 1000 nM at GLP-1 receptor [3] and 0.1 to 1 nM at GLP-1 receptor [4]. Further, the figures for the maximal effect (Emax) at GIP receptor [2] and on GLP-1 receptor [4] were 105% and 101%, respectively.

For `CC[C@H](C)[C@H](NC(=O)[C@H](CCCCN)NC(=O)[C@H](CC(=O)O)NC(=O)[C@H](CC(C)C)NC(=O)[C@H](Cc1ccc(O)cc1)NC(=O)[C@@H](NC(=O)[C@H](CO)NC(=O)[C@H](Cc1ccc(O)cc1)NC(=O)[C@H](CC(=O)O)NC(=O)[C@H](CO)NC(=O)[C@@H](NC(=O)[C@H](Cc1ccccc1)NC(=O)[C@@H](NC(=O)CNC(=O)[C@H](CCC(=O)O)NC(=O)CCNC(=O)C(C)(C)c1cc(F)cc(C#N)c1)[C@@H](C)O)[C@@H](C)O)[C@@H](C)CC)C(=O)N[C@@H](C)C(=O)N[C@@H](CCC(N)=O)C(=O)N[C@@H](CCCCNC(=O)COCCOCCNC(=O)COCCOCCNC(=O)CC[C@H](NC(=O)CCCCCCCCCCCCCCCCCCC(=O)O)C(=O)O)C(=O)N[C@@H](C)C(=O)N[C@@H](Cc1ccccc1)C(=O)N[C@H](C(=O)N[C@@H](CCC(N)=O)C(=O)N[C@@H](Cc1c[nH]c2ccccc12)C(=O)N[C@@H](CC(C)C)C(=O)N[C@H](C(=O)N[C@@H](C)C(=O)NCC(=O)NCC(=O)N1CCC[C@H]1C(=O)N[C@@H](CO)C(=O)N[C@@H](CO)C(=O)NCC(=O)N[C@@H](C)C(=O)N1CCC[C@H]1C(=O)N1CCC[C@H]1C(=O)N1CCC[C@H]1C(=O)N[C@@H](CO)C(N)=O)[C@@H](C)CC)C(C)C` [Compound 189] ({Isobutyryl(2-(3-CN-5-F-Ph))-βAla}-EGTFTSDYSIYLDKIAQK([AEEA-AEEA-γGlu-C20 diacid])AFVQWLIAGGPSSGAPPPS-NH2), the EC50 at GIP receptor [1] was greater than 1000 nM; at GIP receptor [2], 10 to 100 nM; on GLP-1 receptor [3], greater than 1000 nM; at GLP-1 receptor [4] it was 0.1 to 1 nM. Besides, the Emax at GIP receptor [2] worked out at 93%; on GLP-1 receptor [4], 95%.

As for `CC[C@H](C)[C@H](NC(=O)[C@H](CC(C)C)NC(=O)[C@H](Cc1ccc(O)cc1)NC(=O)[C@@H](CCC(=O)O)NC(=O)[C@@H](NC(=O)[C@H](Cc1ccccc1)NC(=O)[C@H](CCC(=O)O)NC(=O)C(C)(C)NC(=O)[C@H](CCC(N)=O)NC(=O)[C@H](C)NC(=O)[C@H](CCCCNC(=O)COCCOCCNC(=O)COCCOCCNC(=O)CC[C@H](NC(=O)CCCCCCCCCCCCCCCCCCC(=O)O)C(=O)O)NC(=O)[C@H](CCCN)NC(=O)[C@H](CC(=O)O)NC(=O)[C@H](CC(C)C)NC(=O)[C@](C)(CC(C)C)NC(=O)[C@@H](NC(=O)[C@H](CO)NC(=O)[C@H](Cc1ccc(O)cc1)NC(=O)[C@H](CC(=O)O)NC(=O)[C@H](CO)NC(=O)[C@@H](NC(=O)[C@](C)(Cc1ccccc1F)NC(=O)[C@@H](NC(=O)CNC(=O)[C@H](CCC(=O)O)NC(=O)CCNC(=O)C(C)(C)c1cc(F)cc(C#N)c1)[C@@H](C)O)[C@@H](C)O)[C@@H](C)CC)[C@@H](C)CC)C(=O)N[C@@H](CCC(=O)O)C(=O)NCC(=O)NCC(=O)N1CCC[C@H]1C(=O)N[C@@H](CO)C(=O)N[C@@H](CO)C(=O)NCC(=O)N[C@@H](C)C(=O)N1CCC[C@H]1C(=O)N1CCC[C@H]1C(=O)N1CCC[C@H]1C(=O)N[C@@H](CO)C(N)=O` [Compound 140] ({Isobutyryl(2-(3-CN-5-F-Ph))-βAla}-EGT[αMePhe(2-F)]TSDYSI[αMeL]LD[Orn]K([AEEA-AEEA-γGlu-C20 diacid])AQ[Aib]EFI[dE]YLIEGGPSSGAPPPS-NH2), the EC50 at GIP receptor [1] is less than 1000 nM; at GIP receptor [2], less than 0.1 nM; at GLP-1 receptor [3] it was greater than 1000 nM; at GLP-1 receptor [4], less than 0.1 nM. In addition, the Emax was found to be 108% at GIP receptor [2] and 104% at GLP-1 receptor [4].

For orientation: EC50 means the concentration giving half of the maximal effect. By Emax is commonly meant the maximal effect, on the per cent scale that the assay sets.
